The values that follow come from patent publication US8680139B2 (Progenra, priority 2009, dated 2014).

The structures appear in SMILES notation.

T1 sequence (Q93009 whole entry): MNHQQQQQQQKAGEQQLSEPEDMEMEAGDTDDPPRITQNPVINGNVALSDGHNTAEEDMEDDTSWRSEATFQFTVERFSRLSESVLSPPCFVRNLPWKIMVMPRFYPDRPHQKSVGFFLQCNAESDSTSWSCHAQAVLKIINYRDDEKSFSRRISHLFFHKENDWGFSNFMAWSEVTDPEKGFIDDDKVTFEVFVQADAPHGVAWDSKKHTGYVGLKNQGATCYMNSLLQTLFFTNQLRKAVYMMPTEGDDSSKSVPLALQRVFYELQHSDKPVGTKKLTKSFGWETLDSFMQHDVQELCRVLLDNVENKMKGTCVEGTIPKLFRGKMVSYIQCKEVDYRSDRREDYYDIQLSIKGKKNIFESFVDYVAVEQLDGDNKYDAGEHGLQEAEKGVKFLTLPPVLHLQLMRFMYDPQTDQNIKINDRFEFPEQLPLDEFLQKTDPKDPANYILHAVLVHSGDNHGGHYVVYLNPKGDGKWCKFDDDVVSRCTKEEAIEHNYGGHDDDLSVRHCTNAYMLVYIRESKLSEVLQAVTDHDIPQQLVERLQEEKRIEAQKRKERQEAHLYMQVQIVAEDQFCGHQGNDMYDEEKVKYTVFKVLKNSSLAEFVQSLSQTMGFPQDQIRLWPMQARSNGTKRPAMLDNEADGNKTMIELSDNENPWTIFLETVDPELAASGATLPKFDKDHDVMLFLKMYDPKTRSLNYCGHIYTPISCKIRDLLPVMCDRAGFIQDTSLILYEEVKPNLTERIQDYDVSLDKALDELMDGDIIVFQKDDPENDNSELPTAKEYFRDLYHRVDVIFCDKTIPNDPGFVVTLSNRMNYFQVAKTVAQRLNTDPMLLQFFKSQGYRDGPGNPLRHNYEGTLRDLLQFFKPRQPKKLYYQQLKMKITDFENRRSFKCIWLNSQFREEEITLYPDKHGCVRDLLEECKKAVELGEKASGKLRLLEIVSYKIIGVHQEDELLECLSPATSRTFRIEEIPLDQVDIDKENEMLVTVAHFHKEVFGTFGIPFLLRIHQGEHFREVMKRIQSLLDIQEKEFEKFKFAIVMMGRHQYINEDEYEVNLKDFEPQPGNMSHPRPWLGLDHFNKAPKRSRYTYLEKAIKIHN

One experiment addresses T1, USP7 (Homo sapiens, UniProt Q93009).
T1 construct: full length human USP7 protein; made in house
Briefly: USP7, Ub-PLA2 assay. It counts as biochemical. The settings on record: USP7, Ub-PLA2 assay. In short, it runs like this: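 Compounds tested against USP7 with DMSO vehicle control and NEM-treated wells as background. Fluorescence (RFU) read-out; % inhibition normalized per plate to mean DMSO and NEM controls.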
As to `N=C(N)Nc1ccc(NC(=O)c2cc([N+](=O)[O-])c(Sc3c(Cl)cncc3Cl)s2)cc1` [Example 236, 5-((3,5-dichloropyridin-4-yl)thio)-N-(4-guanidinophenyl)-4-nitrothiophene-2-carboxamide], the “USP7 inhibition, result in words” value is on record as “Particularly good results”.

Still in this experiment, the particulars now being: Ub-PLA2 / NBD C6-HPC fluorescence, 30 minute preincubation; read-out: EC50 for inhibition of USP7.
In general, EC50 refers to the concentration needed to bring the measured effect to its halfway point. Consider `CCOC(=O)c1cc([N+](=O)[O-])c(Sc2cccc(Cl)c2Cl)s1` [Example 41, Ethyl 5-(2,3-dichlorophenylsulfanyl)-4-nitrothiophene-2-carboxylate], for which the EC50 was over 10000 nM.
Same read-out and setting: with `CN1CCN(c2ccc(NC(=O)c3cc([N+](=O)[O-])c(Sc4c(Cl)cncc4Cl)s3)cc2)CC1` [Example 79, 5-((3,5-dichloropyridin-4-yl)thio)-N-(4-(4-methylpiperazin-1-yl)phenyl)-4-nitrothiophene-2-carboxamide] the figure was 1000 to 10000 nM; with `CN(C)CCC(NC(=O)c1cc([N+](=O)[O-])c(Sc2c(Cl)cncc2Cl)s1)c1ccccc1` (stereo not drawn) [Example 200, 5-((3,5-dichloropyridin-4-yl)thio)-N-(3-(dimethylamino)-1-phenylpropyl)-4-nitrothiophene-2-carboxamide], at most 1000 nM; with `O=C(NCc1cccc(OC(F)F)c1)c1cc([N+](=O)[O-])c(Sc2c(Cl)cncc2Cl)s1` [Example 145, 5-((3,5-dichloropyridin-4-yl)thio)-N-(3-(difluoromethoxy)benzyl)-4-nitrothiophene-2-carboxamide], at most 1000 nM.
The same measure, in the same setting: with `O=C(NCCc1ccccn1)c1cc([N+](=O)[O-])c(Sc2c(Cl)cncc2Cl)s1` [Example 109, 5-((3,5-dichloropyridin-4-yl)thio)-4-nitro-N-(2-(pyridin-2-yl)ethyl)thiophene-2-carboxamide] the figure was at most 1000 nM; with `O=C(NCCc1cccs1)c1cc([N+](=O)[O-])c(Sc2c(Cl)cncc2Cl)s1` [Example 55, 5-((3,5-dichloropyridin-4-yl)thio)-4-nitro-N-(2-(thiophen-2-yl)ethyl)thiophene-2-carboxamide], 1000 to 10000 nM.
On the same count and under the same terms, with `CS(=O)(=O)c1ccc(NC(=O)c2cc(C#N)c(Sc3c(Cl)cncc3Cl)s2)cc1` [Example 208, 4-cyano-5-((3,5-dichloropyridin-4-yl)thio)-N-(4-(methylsulfonyl)phenyl)thiophene-2-carboxamide] the figure was at most 1000 nM; with `O=C(Nc1cc(F)ccc1F)c1cc([N+](=O)[O-])c(Sc2c(Cl)cncc2Cl)s1` [Example 159, 5-((3,5-dichloropyridin-4-yl)thio)-N-(2,5-difluorophenyl)-4-nitrothiophene-2-carboxamide], at most 1000 nM.
For the compound `O=C(NCCN1CCCCC1)c1cc([N+](=O)[O-])c(Sc2c(Cl)cncc2Cl)s1` [Example 161, 5-((3,5-dichloropyridin-4-yl)thio)-4-nitro-N-(2-(piperidin-1-yl)ethyl)thiophene-2-carboxamide], the EC50 was at most 1000 nM.
`CC(=O)c1ccc(NC(=O)c2cc([N+](=O)[O-])c(Sc3c(Cl)cncc3Cl)s2)cc1` [Example 183, N-(4-acetylphenyl)-5-((3,5-dichloropyridin-4-yl)thio)-4-nitrothiophene-2-carboxamide]: the EC50 is at most 1000 nM.
Same read-out and setting: with `O=C(NCCCc1ccccn1)c1cc([N+](=O)[O-])c(Sc2c(Cl)cncc2Cl)s1` [Example 115, 5-((3,5-dichloropyridin-4-yl)thio)-4-nitro-N-(3-(pyridin-2-yl)propyl)thiophene-2-carboxamide] the figure was at most 1000 nM; with `CN1CCC(NC(=O)CNC(=O)c2cc([N+](=O)[O-])c(Sc3c(Cl)cncc3Cl)s2)CC1` [Example 222, 5-((3,5-dichloropyridin-4-yl)thio)-N-(2-((1-methylpiperidin-4-yl)amino)-2-oxoethyl)-4-nitrothiophene-2-carboxamide], at most 1000 nM; with `O=C(NCc1ccc(F)cc1)c1cc([N+](=O)[O-])c(Sc2c(Cl)cncc2Cl)s1` [Example 107, 5-((3,5-dichloropyridin-4-yl)thio)-N-(4-fluorobenzyl)-4-nitrothiophene-2-carboxamide], at most 1000 nM.
Still for that read-out and setting: with `N=C(N)Nc1ccc(NC(=O)c2cc([N+](=O)[O-])c(Sc3c(Cl)cncc3Cl)s2)cc1` [Example 236, 5-((3,5-dichloropyridin-4-yl)thio)-N-(4-guanidinophenyl)-4-nitrothiophene-2-carboxamide] the figure was at most 1000 nM.
Still for that read-out and setting: with `CC(=O)c1cc(I)c(Sc2ccc(Cl)cc2Cl)s1` [Example 20, 1-[5-(2,4-dichlorophenyl)sulfanyl-4-iodo-2-thienyl]ethanone] the figure was over 10000 nM.
Regarding `COc1cccc(NC(=O)c2cc([N+](=O)[O-])c(Sc3c(Cl)cncc3Cl)s2)c1` [Example 156, 5-((3,5-dichloropyridin-4-yl)thio)-N-(3-methoxyphenyl)-4-nitrothiophene-2-carboxamide], the EC50 was at most 1000 nM.
Still for that read-out and setting: with `O=C(NCc1ccc(Cl)nc1)c1cc([N+](=O)[O-])c(Sc2c(Cl)cncc2Cl)s1` [Example 162, N-((6-chloropyridin-3-yl)methyl)-5-((3,5-dichloropyridin-4-yl)thio)-4-nitrothiophene-2-carboxamide] the figure was at most 1000 nM.
As for `CN1CCCC(NC(=O)c2cc([N+](=O)[O-])c(Sc3c(Cl)cncc3Cl)s2)C1` (stereo not drawn) [Example 189, 5-((3,5-dichloropyridin-4-yl)thio)-N-(1-methylpiperidin-3-yl)-4-nitrothiophene-2-carboxamide], the EC50 was at most 1000 nM.
Same read-out and setting: with `CN1CCC(O)(CNC(=O)c2cc([N+](=O)[O-])c(Sc3c(Cl)cncc3Cl)s2)CC1` [Example 90, 5-((3,5-dichloropyridin-4-yl)thio)-N-((4-hydroxy-1-methylpiperidin-4-yl)methyl)-4-nitrothiophene-2-carboxamide] the figure was 1000 to 10000 nM; with `O=C(Nc1ccccc1Cl)c1cc([N+](=O)[O-])c(Sc2c(Cl)cncc2Cl)s1` [Example 134, N-(2-chlorophenyl)-5-((3,5-dichloropyridin-4-yl)thio)-4-nitrothiophene-2-carboxamide], at most 1000 nM; with `COCCCNC(=O)c1cc([N+](=O)[O-])c(Sc2c(Cl)cncc2Cl)s1` [Example 119, 5-((3,5-dichloropyridin-4-yl)thio)-N-(3-methoxypropyl)-4-nitrothiophene-2-carboxamide], at most 1000 nM.
On the same count and under the same terms, with `COc1cc(CNC(=O)c2cc([N+](=O)[O-])c(Sc3c(Cl)cncc3Cl)s2)cc(OC)c1` [Example 69, 5-((3,5-dichloropyridin-4-yl)thio)-N-(3,5-dimethoxybenzyl)-4-nitrothiophene-2-carboxamide] the figure was 1000 to 10000 nM; with `CC(=O)c1cc([N+](=O)[O-])c(Sc2ccc(C(F)(F)F)cc2)s1` [Example 10, 1-{5-[4-(Trifluoromethyl)phenylsulfanyl]-4-nitro-2-thienyl}ethanone], 1000 to 10000 nM; with `COCCN1CC(NC(=O)c2cc([N+](=O)[O-])c(Sc3c(Cl)cncc3Cl)s2)CC1=O` (stereo not drawn) [Example 93, 5-((3,5-dichloropyridin-4-yl)thio)-N-(1-(2-methoxyethyl)-5-oxopyrrolidin-3-yl)-4-nitrothiophene-2-carboxamide], 1000 to 10000 nM.
The same measure, in the same setting: with `CC(=O)c1cc([N+](=O)[O-])c(Sc2nccs2)s1` [Example 14, 1-(4-nitro-5-thiazol-2-ylsulfanyl-2-thienyl)ethanone] the figure was over 10000 nM.
In the case of `CS(=O)(=O)N1CCC(NC(=O)c2cc([N+](=O)[O-])c(Sc3c(Cl)cncc3Cl)s2)CC1` [Example 233, 5-((3,5-dichloropyridin-4-yl)thio)-N-(1-(methylsulfonyl)piperidin-4-yl)-4-nitrothiophene-2-carboxamide], the EC50 is at most 1000 nM.
